From patent US20080033274A1, “Device and Method for Monitoring the Functioning of the Lower Esophageal Sphincter” (Altana Pharma AG, priority 2004, published 2008)

Test system: transient lower esophageal sphincter relaxations (TLESRs) in the conscious dog
Experiment: Number of TLESRs (hydrogen marker gas eructations) in gastric fistula dog under barostat gastric pressure
Assay type: in vivo
Conditions: 7 μmol/kg i.v., 12 mm Hg to the stomach
Source text: The various aspects of the invention were studied with fistula dogs. The fistula is inserted into the stomach of the dog by methods known to the expert, for example as described in Postius S, Braeuer U. Loss of circadian rhythm in luminal acidity of canine stomach by implantation of a gastric fistula. Digestion. 1995; 56(1):3540.
The method according to the invention was used to quantify the number of transient lower esophageal sphincter relaxations (TLESRs, leading to gas refluxes) in the conscious dog, which are provoked by the introduction of hydrogen gas in the stomach. The method can be used with fasted or fed animals and it is not depending on the status of gastric acid secretion.
For the assessment of TLESRs, the gastric fistula dogs were temporarily connected via the gastric fistula to a barostat which continuously measures the gastric pressure and continuously approximates during the monitoring of the marker gas a target pressure by sucking or pumping a gas mixture of air and hydrogen, comprising 0.2-3% hydrogen, whereby 3% of hydrogen was yielding the highest sensitivity.
A target pressure was selected that causes an appropriate number of TLESRs, usually for a period of 30 min. […] The quantification of TLESRs resulting in eructations was performed by continuous collection of the gas in front of and in the middle of nose and mouth of the dog with an open measuring probe head. This gas, comprising hydrogen from the gastric gas mixture, which eructed if the dog is belching, was sucked to a hydrogen sensor (Model used: UST 2330, UST—Umweltsensortechnik GmbH, 98716 Geschwenda, Germany) registering the hydrogen concentration. Significant enhancement in hydrogen concentration in the collected gas was defined to represent a TLESR caused by an eruction. […] Some eructions occurred at 6 mm Hg and lots were measured above 12 mm Hg. However, above 12-14 mm Hg vomiting might be induced as well.
The study design was as follows: […]
0-30 minutes: detection of the number of TLESR by monitoring the concentration of hydrogen detected in the sensor […]

NCC(CC(=O)O)c1ccc(Cl)cc1 (stereo not drawn) [Baclofen]
Number of TLESR detected in the time period indicated (time period 0-10 minutes): 0.75 | Number of TLESR detected in the time period indicated (time period 10-20 minutes): 0.25 | Number of TLESR detected in the time period indicated (time period 20-30 minutes): 1.75
